Test results taken from PMC11787888, “Development and confirmation of humanized plasma and epithelial lining fluid exposures of meropenem, cefiderocol and tobramycin in a standardized neutropenic murine pneumonia model” (Journal of Antimicrobial Chemotherapy, 2024).
Where two headings read alike, the source gives them in different places.

Assays:
[1] = parameters: method as in PMID 33371322, PMID 31724042, PMID 15107149; details: cited from earlier work
[2] = Plasma pharmacokinetics in the COMBINE murine neutropenic pneumonia model
Description: (§1) The model followed the COMBINE protocol with laboratory-specific detailed methods as follows.[6] Specific pathogen free CD-1, female mice 6–8 weeks old were acquired from Charles River Laboratories, Inc. (Raleigh, NC, USA). All animals were allowed to acclimatize for 72 h before any study procedures and were housed as groups of six at controlled room temperature in HEPA-filtered cages (Innovive, San Diego, CA, USA). Study rooms were maintained with diurnal cycles (12 h light/12 h dark) and food and water were provided ad libitum.
(§2) Neutropenia was achieved through 0.2 mL intraperitoneal (IP) administrations of cyclophosphamide 150 mg/kg on day minus 4 and an additional 100 mg/kg on day minus 1. A predictable degree of renal impairment was produced using 5 mg/kg of uranyl nitrate (Electron Microscopy Sciences, Hatfield, PA, USA) dissolved in sterile water administered as a 0.2 mL IP injection on day minus 3. […] Mice were anaesthetised using inhaled isoflurane, manually restrained upright and infected with 50 µL of bacterial suspension via the nares. Each bacterial inoculation suspension was used within 30 minutes of initial preparation.
(§3) The purpose of these studies was to establish HSRs in both plasma and ELF in the COMBINE murine neutropenic pneumonia model equivalent to clinical doses of meropenem (2 g every 8 h as 3 h infusion),[9] cefiderocol (2 g every 8 h as 3 h infusion)[10] and tobramycin (7 mg/kg as 0.5 h infusion)[11–13] based on unbound (free) exposures.
(§4) At predefined timepoints (shown in Figures 1–3), groups of six mice had blood sampled via retro-orbital bleeding (two time points, under anaesthesia with isoflurane 2%–3% v/v in 100% oxygen via inhalation) and/or cardiac puncture (one terminal time point). Proparacaine hydrochloride ophthalmic solution 0.5% was applied to the eye (1–2 drops) after blood sampling via retro-orbital bleeding. The volume of blood collected was 0.15 mL per sample via retro-orbital bleeding with subsequent fluid replacement using 0.2 mL normal saline given IP. Mice were euthanized by CO2 exposure before cardiac puncture. Following blood collection by cardiac puncture, but before cervical dislocation, bronchoalveolar lavage (BAL) fluid was collected from the mice at the same time points. A catheter was inserted into the trachea of the mice, and lungs were lavaged with four separate aliquots of 0.4 mL of normal saline. The BAL fluid was withdrawn immediately after injection and pooled for each animal. Pooled BAL was centrifuged for 10 min at 4°C and the supernatant was collected for analysis.
(§5) Drug concentrations in ELF were estimated by correcting the drug concentration in BAL fluid for the dilution with normal saline during lung lavage using the following formula: compoundELF = compoundBAL × (ureaplasma/ureaBAL), where compoundBAL is the measured drug concentration in the BAL fluid sample and ureaplasma and ureaBAL are the concentrations of urea in paired plasma and BAL fluid samples from each mouse, respectively. Owing to the lack of albumin in BAL fluid, total ELF concentrations were considered unbound.
(§6) Statistical outliers for each respective analyte were removed by the interquartile range method. Previously reported meropenem, cefiderocol and plazomicin (an aminoglycoside similar to tobramycin) plasma HSRs developed in alternative murine models were used as a baseline.[19],[20] Mathematical modifications were made to the baseline regimens as necessary to achieve translational exposures in the COMBINE model and repeat confirmatory PK studies were undertaken for both plasma and ELF.

[3] = ELF pharmacokinetics in the COMBINE murine neutropenic pneumonia model
Description: as §1, §2, §3, §4, §5, §6

[4] = parameters: method as in PMID 17283197, PMID 28848004; details: murine plasma, previously determined; cited from earlier work
[5] = human plasma, 2 g every 8 h as a 3 h infusion; cited from earlier work
[6] = mouse plasma, best-fit one-compartment model
[7] = mouse ELF, best-fit one-compartment model

SMILES: CC(C)(O/N=C(\C(=O)N[C@@H]1C(=O)N2C(C(=O)[O-])=C(C[N+]3(CCNC(=O)c4ccc(O)c(O)c4Cl)CCCC3)CS[C@H]12)c1csc(N)n1)C(=O)O [Cefiderocol, cefiderocol]
- Human plasma protein binding [1]: 58%
- k el ([2]; female, CD-1, mouse, plasma, sc): 0.000206 s⁻¹
- K a (absorption rate constant into central compartment) [2, 6]: 21.71 h⁻¹
- V plasma (volume of distribution in central compartment) [2, 6]: 0.19 L/kg
- %fT > MIC for a MIC of 1 µg/mL ([2]; mouse plasma, plasma HSR): 100%
- %fT > MIC for a MIC of 2 µg/mL ([2]; mouse plasma, plasma HSR): 100%
- %fT > MIC for a MIC of 4 µg/mL ([2]; mouse plasma, plasma HSR): 91%
- %fT > MIC for a MIC of 8 µg/mL ([2]; mouse plasma, plasma HSR): 76%
- %fT > MIC for a MIC of 16 µg/mL ([2]; mouse plasma, plasma HSR): 50%
- %fT > MIC for a MIC of 32 µg/mL ([2]; mouse plasma, plasma HSR): 16%
- %fT > MIC for a MIC of 64 µg/mL ([2]; mouse plasma, plasma HSR): 0%
- %fT > MIC for a MIC of 128 µg/mL ([2]; mouse plasma, plasma HSR): 0%
- k el ([3]; female, CD-1, mouse, epithelial lining fluid (ELF), sc): 0.0002 s⁻¹
- %fT > MIC for a MIC of 1 µg/mL ([3]; mouse ELF, ELF HSR): 100%
- %fT > MIC for a MIC of 2 µg/mL ([3]; mouse ELF, ELF HSR): 100%
- %fT > MIC for a MIC of 4 µg/mL ([3]; mouse ELF, ELF HSR): 85%
- %fT > MIC for a MIC of 8 µg/mL ([3]; mouse ELF, ELF HSR): 50%
- %fT > MIC for a MIC of 16 µg/mL ([3]; mouse ELF, ELF HSR): 14%
- %fT > MIC for a MIC of 32 µg/mL ([3]; mouse ELF, ELF HSR): 0%
- %fT > MIC for a MIC of 64 µg/mL ([3]; mouse ELF, ELF HSR): 0%
- %fT > MIC for a MIC of 128 µg/mL ([3]; mouse ELF, ELF HSR): 0%
- K a-ELF (absorption rate constant into ELF compartment) [3, 7]: 1.94 h⁻¹
- V ELF (volume of distribution in ELF compartment) [3, 7]: 0.33 L/kg
- Murine protein binding [4]: 31.6%
- %fT > MIC for a MIC of 1 µg/mL [5]: 100%
- %fT > MIC for a MIC of 2 µg/mL [5]: 99%
- %fT > MIC for a MIC of 4 µg/mL [5]: 98%
- %fT > MIC for a MIC of 8 µg/mL [5]: 76%
- %fT > MIC for a MIC of 16 µg/mL [5]: 48%
- %fT > MIC for a MIC of 32 µg/mL [5]: 11%
- %fT > MIC for a MIC of 64 µg/mL [5]: 0%
- %fT > MIC for a MIC of 128 µg/mL [5]: 0%
